Each structure is given as a SMILES string. Structures can show the parent of a compound that is named as a salt.

SSTR5, sequence (P35346 whole entry): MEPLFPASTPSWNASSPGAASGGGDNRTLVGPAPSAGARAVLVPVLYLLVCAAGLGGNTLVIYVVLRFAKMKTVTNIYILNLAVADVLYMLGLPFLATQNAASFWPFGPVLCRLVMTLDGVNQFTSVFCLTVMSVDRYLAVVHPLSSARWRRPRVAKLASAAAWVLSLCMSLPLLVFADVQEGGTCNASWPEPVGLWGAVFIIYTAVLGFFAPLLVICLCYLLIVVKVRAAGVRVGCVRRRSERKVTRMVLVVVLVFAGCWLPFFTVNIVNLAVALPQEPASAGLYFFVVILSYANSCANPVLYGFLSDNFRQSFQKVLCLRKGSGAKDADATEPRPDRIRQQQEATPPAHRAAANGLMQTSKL

The assay addresses SSTR5 (Homo sapiens (Human), UniProt P35346). Briefly: SSTR5 binding assay. As to conditions: CHO-K1 membranes expressing cloned human SSTR5. The procedure, abridged:
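Competition binding on membranes from CHO-K1 cells stably expressing cloned human receptor, using radiolabeled somatostatin in 50 mM Tris-HCl pH 7.8 with EGTA, MgCl2 and protease inhibitors. Unlabeled compounds tested from 0.01 nM to 10,000 nM.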
Broadly, the IC50 is the concentration at which inhibition is half-maximal. Lower therefore signals greater potency in that assay. For `COc1ccc2c(c1)c(CN1CCC3(CC1)CN(c1ccc(C(=O)O)cc1)C(=O)O3)cn2C(C)C` [Example 6-26, 4-(8-{[5-Methoxy-1-(propan-2-yl)-1H-indol-3-yl]methyl}-2-oxo-1-oxa-3,8-diazaspiro[4.5]dec-3-yl)benzoic acid, TFA salt], the IC50 was 1.45 nM.
With `O=C(O)c1ccc(N2CC3(CCN(Cc4cn(C5CCCCC5)nc4-c4ccc(OC(F)(F)F)cc4)CC3)OC2=O)cc1` [Example 1-23, 4-[8-({1-Cyclohexyl-3-[4-(trifluoromethoxy)phenyl]-1H-pyrazol-4-yl}methyl)-2-oxo-1-oxa-3,8-diazaspiro[4.5]dec-3-yl]benzoic acid, TFA salt], the IC50 is 2.26 nM. Compared with the last compound, the IC50 is about 1.6-fold higher.
With `CCOc1cc(CN2CCC3(CC2)CN(c2ccc(C(=O)O)cc2C)C(=O)O3)c(-c2ccc(F)c(F)c2F)cc1C` [Example 4-8, 4-{8-[(4-Ethoxy-2′,3′,4′-trifluoro-5-methylbiphenyl-2-yl)methyl]-2-oxo-1-oxa-3,8-diazaspiro[4.5]dec-3-yl}-3-methylbenzoic acid, TFA salt] the figure was 0.474 nM; with `O=C(O)c1ccc(N2CC3(CCN(Cc4cn(C5CCCCC5)nc4-c4ccc(F)c(F)c4F)CC3)OC2=O)cc1` [Example 1-19, 4-(8-{[1-Cyclohexyl-3-(2,3,4-trifluorophenyl)-1H-pyrazol-4-yl]methyl}-2-oxo-1-oxa-3,8-diazaspiro[4.5]dec-3-yl)benzoic acid, TFA salt], 1.33 nM.
For `O=C(O)c1ccc(N2CC3(CCN(Cc4nc(-c5ccccc5)oc4-c4ccc(F)c(Cl)c4)CC3)OC2=O)cc1` [Example 6-27, 4-(8-{[5-(3-Chloro-4-fluorophenyl)-2-phenyl-1,3-oxazol-4-yl]methyl}-2-oxo-1-oxa-3,8-diazaspiro[4.5]dec-3-yl)benzoic acid, TFA salt], the IC50 stood at 119 nM. This IC50 is about 89-fold higher than that of the compound before.
On to `Cc1cc(N2CC3(CCN(Cc4cn(C(C)(C)C)nc4-c4cc(F)c(Cl)cc4F)CC3)OC2=O)ccc1C(=O)O` [Example 1-11, 4-(8-{[1-tert-Butyl-3-(4-chloro-2,5-difluorophenyl)-1H-pyrazol-4-yl]methyl}-2-oxo-1-oxa-3,8-diazaspiro[4.5]dec-3-yl)-2-methylbenzoic acid, TFA salt], for which the IC50 is 6.24 nM.
On to `CCOc1cc(CN2CCC3(CC2)CN(c2ccc(C(=O)O)cc2)C(=O)O3)cc2cnc(C(F)(F)F)cc12` [Example 5-8, 4-(8-{[5-Ethoxy-3-(trifluoromethyl)isoquinolin-7-yl]methyl}-2-oxo-1-oxa-3,8-diazaspiro[4.5]dec-3-yl)benzoic acid, TFA salt], for which the IC50 was determined as 0.424 nM.
Compound `COc1ccc2c(CN3CCC4(CC3)CN(c3ccc(C(=O)O)cc3)C(=O)O4)nn(-c3ccccc3)c2c1` [Example 6-13, 4-{8-[(6-Methoxy-1-phenyl-1H-indazol-3-yl)methyl]-2-oxo-1-oxa-3,8-diazaspiro[4.5]dec-3-yl}benzoic acid, TFA salt] displayed an IC50 of 185 nM.
Consider `CCCCn1cc(CN2CCC3(CC2)CN(c2ccc(C(=O)O)cc2)C(=O)O3)c(-c2ccc(F)c(F)c2F)n1` [Example 1-18, 4-(8-{[1-Butyl-3-(2,3,4-trifluorophenyl)-1H-pyrazol-4-yl]methyl}-2-oxo-1-oxa-3,8-diazaspiro[4.5]dec-3-yl)benzoic acid, TFA salt], for which the IC50 stood at 2.7 nM.
Compound `CC(C)(C)n1cc(CN2CCC3(CC2)CN(c2ccc(C(=O)O)cc2)C(=O)O3)c(-c2cc(F)c(Cl)cc2F)n1` [Example 1-31, 4-(8-{[1-tert-Butyl-3-(4-chloro-2,5-difluorophenyl)-1H-pyrazol-4-yl]methyl}-2-oxo-1-oxa-3,8-diazaspiro[4.5]dec-3-yl)benzoic acid, TFA salt] yielded an IC50 of 2.09 nM.
`CCOc1cc(CN2CCC3(CC2)CN(c2ccc(C(=O)O)c(Cl)c2)C(=O)O3)cc(OCC)c1-c1ccc(F)cc1` [Example 3-9, 2-Chloro-4-{8-[(2,6-diethoxy-4′-fluorobiphenyl-4-yl)methyl]-2-oxo-1-oxa-3,8-diazaspiro[4.5]dec-3-yl}benzoic acid, TFA salt]: the IC50 was 1.21 nM.

Values taken from patent US8742110B2, “Spiroxazolidinone compounds” (Merck Sharp & Dohme Corp., priority 2010, dated 2014).
